Measured values: ChEMBL document CHEMBL1201862, “PubChem BioAssay data set” (2004)
Calls of active or inactive are those of the source.

Columns and labels:
[1] = viability loss of HPDE-C7K cells – cell-based, fluorescence, HTS, primary screen (AID 431); format: functional; conditions: Homo sapiens
[2] = HPDE-C7 pancreatic duct cell viability loss – fluorescence, HTS (AID 430); format: functional, cell-based; conditions: Homo sapiens
Estrogen receptor = target: T1, Estrogen receptor (Homo sapiens, UniProt P03372); test: ERα coactivator recruitment enhancers – biochemical, TR-FRET, ERα LBD, dose response (AID 737)
T1 sequence (P03372 whole entry): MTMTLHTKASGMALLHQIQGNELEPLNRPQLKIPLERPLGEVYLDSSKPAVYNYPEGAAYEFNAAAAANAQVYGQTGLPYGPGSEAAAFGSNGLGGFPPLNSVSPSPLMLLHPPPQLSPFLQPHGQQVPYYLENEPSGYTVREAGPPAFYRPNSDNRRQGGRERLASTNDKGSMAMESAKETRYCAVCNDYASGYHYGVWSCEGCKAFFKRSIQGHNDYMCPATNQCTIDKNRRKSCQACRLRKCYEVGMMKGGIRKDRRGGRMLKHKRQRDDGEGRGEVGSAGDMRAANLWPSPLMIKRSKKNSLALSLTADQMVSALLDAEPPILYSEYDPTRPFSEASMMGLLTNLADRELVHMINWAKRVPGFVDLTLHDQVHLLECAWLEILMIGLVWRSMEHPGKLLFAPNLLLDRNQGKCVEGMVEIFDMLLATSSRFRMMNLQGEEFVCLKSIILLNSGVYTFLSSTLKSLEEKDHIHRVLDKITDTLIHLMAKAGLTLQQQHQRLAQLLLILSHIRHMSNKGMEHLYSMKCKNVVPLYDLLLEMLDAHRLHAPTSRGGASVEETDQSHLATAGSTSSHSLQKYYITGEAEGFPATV

Vero = test: viability of Vero cells under compound – cytotoxicity control for flavivirus capping enzyme inhibitors (AID 588742); format: functional; conditions: Chlorocebus sabaeus
[3] = target: Sphingosine 1-phosphate receptor 2 (Homo sapiens, UniProt O95136); test: Dose Response Cell Based Assay for Agonists of the S1P2 Receptor of Purchased Analogues. [Related pubchem assays: 729, 843, 854, 736 ]; format: functional
[4] = target: Voltage-gated inwardly rectifying potassium channel KCNH2 (Homo sapiens, UniProt Q12809); test: concentration-dependent hERG rescue from blockers – cell-based, thallium flux, dose response (AID 2121); format: ADME
[5] = NIH3T3 cell viability loss – ATP luminescence, mouse fibroblasts, counter-screen, dose response (AID 2010); format: functional, cell-based;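 note: cells exposed to compound for about 90 hours before reading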
[6] = Trypanosoma cruzi growth suppression in host cells – NIH3T3 host cells, beta-gal luminescence, confirmation (AID 2044); format: functional, cell-based;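 note: intracellular parasites grown in NIH/3T3 mouse fibroblasts as host cells; luminescent beta-galactosidase reporter signal from transgenic T. cruzi replicating inside host cells; inhibitors lower the luminescence signal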
[7] = target: Peroxisome proliferator-activated receptor gamma/Nuclear receptor coactivator 2 (Homo sapiens, UniProt P37231); format: functional;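 note: agonist potency for raising coactivator recruitment to the receptor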
[8] = target: Peroxisome proliferator-activated receptor gamma/Nuclear receptor coactivator 1 (Homo sapiens, UniProt P37231); format: functional;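 note: agonist potency as compounds enhance coactivator SRC-1 recruitment to PPARgamma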
[9] = target: Peroxisome proliferator-activated receptor gamma/Nuclear receptor coactivator 3 (Homo sapiens, UniProt P37231); format: functional;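 note: agonist potency for raising coactivator recruitment to the receptor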
[10] = target: T2, Heat shock factor protein 1 (Mus musculus, UniProt P38532); test: enhancement of HSF1-driven luciferase signal – cell-based, NIH3T3, luminescence, dose retest, confirmation (AID 435004); format: functional;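 note: stress induced by proteasome inhibitor MG132 added 30 min after compound; luciferase reporter driven by HSF1 response element in NIH3T3 cells; actives raise luminescence as potentiators of the MG132 stress response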
T2 sequence (P38532 whole entry): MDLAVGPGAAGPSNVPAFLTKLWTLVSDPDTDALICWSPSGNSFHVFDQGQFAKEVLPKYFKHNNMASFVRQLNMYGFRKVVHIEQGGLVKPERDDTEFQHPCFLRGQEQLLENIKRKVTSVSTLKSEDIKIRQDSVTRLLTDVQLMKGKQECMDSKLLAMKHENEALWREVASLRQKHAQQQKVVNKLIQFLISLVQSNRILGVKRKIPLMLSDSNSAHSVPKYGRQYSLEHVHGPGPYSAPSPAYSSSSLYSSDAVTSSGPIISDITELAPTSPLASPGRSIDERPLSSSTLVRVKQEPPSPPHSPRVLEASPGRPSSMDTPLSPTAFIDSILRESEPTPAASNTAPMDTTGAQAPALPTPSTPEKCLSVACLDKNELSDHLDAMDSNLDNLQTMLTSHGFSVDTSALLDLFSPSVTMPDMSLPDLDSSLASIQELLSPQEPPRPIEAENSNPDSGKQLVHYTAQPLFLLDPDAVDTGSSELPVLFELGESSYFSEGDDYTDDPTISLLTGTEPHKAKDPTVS

Bcl-2-like protein 10 = target: T3, Bcl-2-like protein 10 (Homo sapiens, UniProt Q9HD36); test: Bcl-B/TR3 peptide binding disruption – biochemical, fluorescence polarization, FITC-TR3 peptide, selectivity assay for Bfl-1 inhibitor project, primary screen (AID 748);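 note: fluorescence polarization from a fluorescein-labelled TR3 peptide binding purified Bcl-B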
T3 sequence (Q9HD36 whole entry): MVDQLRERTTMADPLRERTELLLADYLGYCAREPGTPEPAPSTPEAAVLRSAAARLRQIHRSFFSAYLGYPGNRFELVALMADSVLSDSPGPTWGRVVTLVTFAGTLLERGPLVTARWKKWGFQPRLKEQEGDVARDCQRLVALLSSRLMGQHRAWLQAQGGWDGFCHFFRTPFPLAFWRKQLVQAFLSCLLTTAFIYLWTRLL

Cytochrome P450 2C19 [11] = target: T4, Cytochrome P450 2C19 (Homo sapiens, UniProt P33261); test: Cytochrome panel assay with activity outcomes. Panel member name: p450-cyp2c19 Compounds with AC50 equal or less than 10 uM are considered active; format: functional; conditions: read-out: AC50
Cytochrome P450 2C9 [12] = target: T5, Cytochrome P450 2C9 (Homo sapiens, UniProt P11712); conditions: Potency
Cytochrome P450 2C9 [13] = target: T5, Cytochrome P450 2C9
Cytochrome P450 2D6 = Cytochrome P450 2D6 (Homo sapiens, UniProt P10635); test: qHTS Assay for Inhibitors and Substrates of Cytochrome P450 2D6. [Related pubchem assays: 410 ]; format: ADME; conditions: read-out: Potency
Cytochrome P450 2C19 [14] = target: T4, Cytochrome P450 2C19; test: qHTS Assay for Inhibitors and Substrates of Cytochrome P450 2C19. [Related pubchem assays: 410 ]; format: ADME; conditions: read-out: Potency

T5 sequence (P11712 whole entry): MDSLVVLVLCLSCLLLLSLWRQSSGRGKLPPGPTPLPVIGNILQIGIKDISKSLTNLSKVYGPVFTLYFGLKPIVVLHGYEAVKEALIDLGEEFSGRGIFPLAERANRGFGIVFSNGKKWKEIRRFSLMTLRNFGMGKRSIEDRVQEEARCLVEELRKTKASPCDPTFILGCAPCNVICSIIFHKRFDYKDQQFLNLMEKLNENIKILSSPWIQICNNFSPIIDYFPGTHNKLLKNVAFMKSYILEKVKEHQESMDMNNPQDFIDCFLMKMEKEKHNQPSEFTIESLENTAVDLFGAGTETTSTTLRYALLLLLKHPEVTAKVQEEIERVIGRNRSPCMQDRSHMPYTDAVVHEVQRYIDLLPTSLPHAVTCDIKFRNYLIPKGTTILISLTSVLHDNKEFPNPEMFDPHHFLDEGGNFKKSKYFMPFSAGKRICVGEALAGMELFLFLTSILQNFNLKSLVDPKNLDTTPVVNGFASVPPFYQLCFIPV
Sequence of Peroxisome proliferator-activated receptor gamma/Nuclear receptor coactivator 1 (P37231 whole entry): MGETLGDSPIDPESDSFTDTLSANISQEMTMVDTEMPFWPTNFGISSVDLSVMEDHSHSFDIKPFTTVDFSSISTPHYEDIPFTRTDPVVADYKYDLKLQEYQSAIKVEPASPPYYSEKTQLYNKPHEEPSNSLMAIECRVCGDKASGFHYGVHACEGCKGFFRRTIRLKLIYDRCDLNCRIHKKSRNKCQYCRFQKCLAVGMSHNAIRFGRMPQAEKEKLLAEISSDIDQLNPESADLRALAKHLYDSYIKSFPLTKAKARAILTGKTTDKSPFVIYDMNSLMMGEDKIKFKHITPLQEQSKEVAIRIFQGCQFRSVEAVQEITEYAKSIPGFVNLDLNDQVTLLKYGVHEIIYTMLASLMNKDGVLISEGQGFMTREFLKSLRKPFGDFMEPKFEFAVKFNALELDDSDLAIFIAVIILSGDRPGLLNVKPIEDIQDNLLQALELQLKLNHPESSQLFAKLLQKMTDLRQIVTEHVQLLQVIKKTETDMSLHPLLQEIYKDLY
Sequence of Peroxisome proliferator-activated receptor gamma/Nuclear receptor coactivator 1 (Q15788 whole entry, further chain): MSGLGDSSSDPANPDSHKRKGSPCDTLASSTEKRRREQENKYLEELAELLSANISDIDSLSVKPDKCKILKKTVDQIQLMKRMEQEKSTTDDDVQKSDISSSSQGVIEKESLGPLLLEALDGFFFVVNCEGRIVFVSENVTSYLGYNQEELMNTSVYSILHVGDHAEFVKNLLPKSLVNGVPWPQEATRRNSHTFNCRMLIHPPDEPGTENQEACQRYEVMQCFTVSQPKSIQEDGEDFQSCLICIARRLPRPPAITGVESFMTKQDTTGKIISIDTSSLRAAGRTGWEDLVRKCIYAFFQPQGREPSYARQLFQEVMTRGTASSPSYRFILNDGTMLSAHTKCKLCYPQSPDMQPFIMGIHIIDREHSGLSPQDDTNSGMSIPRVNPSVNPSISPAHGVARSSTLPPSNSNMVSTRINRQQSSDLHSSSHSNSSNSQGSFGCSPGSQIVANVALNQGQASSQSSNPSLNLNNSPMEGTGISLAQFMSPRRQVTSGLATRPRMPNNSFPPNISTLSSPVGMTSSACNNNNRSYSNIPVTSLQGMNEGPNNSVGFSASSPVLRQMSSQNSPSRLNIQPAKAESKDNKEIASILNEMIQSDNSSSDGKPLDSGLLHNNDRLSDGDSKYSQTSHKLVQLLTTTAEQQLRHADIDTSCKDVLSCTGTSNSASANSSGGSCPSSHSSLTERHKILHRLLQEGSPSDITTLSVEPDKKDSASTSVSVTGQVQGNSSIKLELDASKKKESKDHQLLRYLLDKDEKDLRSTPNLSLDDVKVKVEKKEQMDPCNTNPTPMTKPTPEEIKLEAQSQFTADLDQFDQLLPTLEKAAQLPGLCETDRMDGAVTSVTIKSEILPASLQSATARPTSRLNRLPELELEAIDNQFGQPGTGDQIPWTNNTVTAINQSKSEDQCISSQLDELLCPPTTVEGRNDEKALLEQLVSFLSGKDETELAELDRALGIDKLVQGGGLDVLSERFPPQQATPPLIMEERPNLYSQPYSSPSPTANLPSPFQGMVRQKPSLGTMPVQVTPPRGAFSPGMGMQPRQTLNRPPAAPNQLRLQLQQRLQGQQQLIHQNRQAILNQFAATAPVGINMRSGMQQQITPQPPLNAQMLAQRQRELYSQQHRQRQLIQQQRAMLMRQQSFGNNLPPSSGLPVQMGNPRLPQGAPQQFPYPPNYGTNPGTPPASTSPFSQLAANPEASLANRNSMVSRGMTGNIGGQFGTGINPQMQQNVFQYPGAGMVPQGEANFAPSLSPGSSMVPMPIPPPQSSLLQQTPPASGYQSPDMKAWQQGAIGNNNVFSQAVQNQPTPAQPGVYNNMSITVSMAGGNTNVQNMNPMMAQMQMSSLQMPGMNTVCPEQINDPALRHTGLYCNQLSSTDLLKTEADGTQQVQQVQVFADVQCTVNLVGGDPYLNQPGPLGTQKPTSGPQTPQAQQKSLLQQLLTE
Sequence of Peroxisome proliferator-activated receptor gamma/Nuclear receptor coactivator 3 (P37231 whole entry): as the sequence (P37231 whole entry) above
Sequence of Peroxisome proliferator-activated receptor gamma/Nuclear receptor coactivator 3 (Q9Y6Q9 whole entry, further chain): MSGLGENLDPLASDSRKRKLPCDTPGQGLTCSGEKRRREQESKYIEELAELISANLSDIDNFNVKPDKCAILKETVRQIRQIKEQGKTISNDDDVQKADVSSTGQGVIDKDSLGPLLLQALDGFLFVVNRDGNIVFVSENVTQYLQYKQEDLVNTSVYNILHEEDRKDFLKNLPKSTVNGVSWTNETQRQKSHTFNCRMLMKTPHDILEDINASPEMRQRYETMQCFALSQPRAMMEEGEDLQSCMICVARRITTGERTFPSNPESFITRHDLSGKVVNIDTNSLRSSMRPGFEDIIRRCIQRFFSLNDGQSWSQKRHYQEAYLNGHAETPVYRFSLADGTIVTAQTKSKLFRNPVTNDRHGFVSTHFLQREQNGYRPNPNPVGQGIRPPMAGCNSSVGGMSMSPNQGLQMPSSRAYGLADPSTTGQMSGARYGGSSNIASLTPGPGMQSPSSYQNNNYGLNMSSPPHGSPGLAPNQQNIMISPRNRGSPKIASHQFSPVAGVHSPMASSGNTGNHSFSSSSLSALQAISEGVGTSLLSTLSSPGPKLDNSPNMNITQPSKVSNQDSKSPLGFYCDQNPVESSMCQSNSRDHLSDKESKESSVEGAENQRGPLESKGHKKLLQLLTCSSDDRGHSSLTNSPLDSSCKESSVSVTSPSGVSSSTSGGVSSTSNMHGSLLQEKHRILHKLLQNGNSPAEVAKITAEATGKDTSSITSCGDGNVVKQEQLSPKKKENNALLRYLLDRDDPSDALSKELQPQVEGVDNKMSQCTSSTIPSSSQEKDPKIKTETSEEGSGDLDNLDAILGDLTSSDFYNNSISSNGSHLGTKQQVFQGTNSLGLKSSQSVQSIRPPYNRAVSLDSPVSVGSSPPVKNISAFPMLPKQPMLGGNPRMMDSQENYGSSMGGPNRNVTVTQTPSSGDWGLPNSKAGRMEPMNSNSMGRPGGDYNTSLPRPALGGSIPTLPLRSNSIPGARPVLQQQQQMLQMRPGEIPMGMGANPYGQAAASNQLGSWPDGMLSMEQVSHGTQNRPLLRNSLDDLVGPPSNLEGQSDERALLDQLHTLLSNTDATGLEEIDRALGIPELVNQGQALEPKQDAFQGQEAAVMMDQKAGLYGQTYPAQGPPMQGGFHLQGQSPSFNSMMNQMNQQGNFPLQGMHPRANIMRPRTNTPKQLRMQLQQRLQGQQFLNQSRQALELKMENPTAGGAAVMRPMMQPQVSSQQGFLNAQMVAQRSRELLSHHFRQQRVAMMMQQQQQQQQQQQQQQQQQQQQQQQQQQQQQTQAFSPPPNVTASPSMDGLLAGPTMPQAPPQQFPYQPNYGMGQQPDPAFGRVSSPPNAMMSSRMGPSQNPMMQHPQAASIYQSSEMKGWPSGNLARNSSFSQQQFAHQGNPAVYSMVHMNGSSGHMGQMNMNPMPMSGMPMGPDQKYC
T4 sequence (P33261 whole entry): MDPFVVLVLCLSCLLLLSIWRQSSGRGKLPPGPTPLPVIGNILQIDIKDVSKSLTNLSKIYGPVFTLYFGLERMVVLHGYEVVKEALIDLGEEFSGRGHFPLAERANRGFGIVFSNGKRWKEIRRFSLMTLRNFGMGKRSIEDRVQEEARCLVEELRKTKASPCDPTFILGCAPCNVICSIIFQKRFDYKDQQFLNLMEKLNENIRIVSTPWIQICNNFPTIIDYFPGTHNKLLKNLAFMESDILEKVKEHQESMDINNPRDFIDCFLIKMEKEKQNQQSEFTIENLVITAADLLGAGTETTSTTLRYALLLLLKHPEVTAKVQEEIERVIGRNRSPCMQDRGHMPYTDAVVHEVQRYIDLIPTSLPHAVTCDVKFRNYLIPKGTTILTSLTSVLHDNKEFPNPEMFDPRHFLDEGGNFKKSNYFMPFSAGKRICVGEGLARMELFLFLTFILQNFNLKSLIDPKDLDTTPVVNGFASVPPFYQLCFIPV

In the case of `CCC(=O)Oc1ccc(/C(CC)=C(\CC)c2ccc(OC(=O)CC)cc2)cc1` [DIETHYLSTILBESTROL DIPROPIONATE], the EC50 [1] is reported as 3.87 µM (active), the EC50 [2] is reported as 4.6 µM (active) and the EC50 (Estrogen receptor) is reported as 18.1 µM (active). For the same molecule, the CC50 (Vero) was > 40 µM (active).

With `Cc1cc(C(=O)COC(=O)CN2C(=O)NC(C)(C)C2=O)c(C)n1Cc1ccccc1` the EC50 [3] was > 30 µM (not active).

For `Cc1cccc(Cn2c(O)c(N=NC(S)=Nc3ccccc3F)c3ccccc32)c1`, the EC50 [4] was 1.09 µM (active), the EC50 [5] was 2.68 µM (active) and the EC50 [6] was 0.663 µM (active).

In the case of `O=C(CCCn1c(=O)[nH]c2ccc(Br)cc2c1=O)NCc1ccc(Cl)cc1`, the EC50 [7] is reported as > 79.4 µM (not active), the EC50 [8] is reported as > 79.4 µM (not active) and the EC50 [9] is reported as > 79.4 µM (not active).

With `O=C(COC(=O)c1ccccc1C(=O)c1ccccc1)NCCc1ccccc1` the EC50 [10] was > 260 µM (inactive), the EC50 [7] was > 79.4 µM (not active) and the EC50 [8] was > 79.4 µM (not active). The EC50 [9] was > 79.4 µM (not active).

For `CC(=O)c1c(CC(=O)O)[nH]n(-c2nc3ccccc3s2)c1=O`, the IC50 (Bcl-2-like protein 10) was 71.2 µM (inactive).

With `CC(C)C(=O)Nc1ccc([N+](=O)[O-])c(C(F)(F)F)c1` [FLUTAMIDE] the AC50 (Cytochrome P450 2C19 [11]) was 10 µM (inconclusive), the AC50 (Cytochrome P450 2C9 [12]) was 39.8 µM (inconclusive) and the AC50 (Cytochrome P450 2C9 [13]) was 12.6 µM (inconclusive).

For `O=C1c2ccccc2C(O)(O)[C@@]1(O)[C@]1(O)C(=O)c2ccccc2C1(O)O`, the AC50 (Cytochrome P450 2D6) was 7.94 µM (inconclusive).

In the case of `CC(C)[C@@H](CC(=O)N[C@@H]1CCCC[C@H]1C(=O)N[C@H](CC(=O)N[C@@H](CCC(=O)O)CC(=O)O)Cc1ccccc1)NC(=O)C[C@H](CO)NC(=O)[C@@H]1CCCC[C@H]1N`, the AC50 (Cytochrome P450 2C19 [14]) is reported as 39.8 µM (inconclusive) and the AC50 (Cytochrome P450 2C9 [12]) is reported as 39.8 µM (inconclusive).
